In PMC9217576, “Urease and α-Chymotrypsin Inhibitory Activities and Molecular Docking Studies of Alkaloids Isolated from Medicinal Plant Isatis minima Bunge” (Evidence-based Complementary and Alternative Medicine : eCAM, 2022):
Like-named read-outs stand apart in the source and are kept apart here.

Tests used:
Assay type in all cases: biochemical
Jack bean urease = Jack bean urease (Canavalia ensiformis, UniProt P07374); experiment: biochemical; conditions: for IC50: SEM of five determinations, pH 6.8, 30°C
Jack bean urease, sequence (P07374 whole entry, looked up): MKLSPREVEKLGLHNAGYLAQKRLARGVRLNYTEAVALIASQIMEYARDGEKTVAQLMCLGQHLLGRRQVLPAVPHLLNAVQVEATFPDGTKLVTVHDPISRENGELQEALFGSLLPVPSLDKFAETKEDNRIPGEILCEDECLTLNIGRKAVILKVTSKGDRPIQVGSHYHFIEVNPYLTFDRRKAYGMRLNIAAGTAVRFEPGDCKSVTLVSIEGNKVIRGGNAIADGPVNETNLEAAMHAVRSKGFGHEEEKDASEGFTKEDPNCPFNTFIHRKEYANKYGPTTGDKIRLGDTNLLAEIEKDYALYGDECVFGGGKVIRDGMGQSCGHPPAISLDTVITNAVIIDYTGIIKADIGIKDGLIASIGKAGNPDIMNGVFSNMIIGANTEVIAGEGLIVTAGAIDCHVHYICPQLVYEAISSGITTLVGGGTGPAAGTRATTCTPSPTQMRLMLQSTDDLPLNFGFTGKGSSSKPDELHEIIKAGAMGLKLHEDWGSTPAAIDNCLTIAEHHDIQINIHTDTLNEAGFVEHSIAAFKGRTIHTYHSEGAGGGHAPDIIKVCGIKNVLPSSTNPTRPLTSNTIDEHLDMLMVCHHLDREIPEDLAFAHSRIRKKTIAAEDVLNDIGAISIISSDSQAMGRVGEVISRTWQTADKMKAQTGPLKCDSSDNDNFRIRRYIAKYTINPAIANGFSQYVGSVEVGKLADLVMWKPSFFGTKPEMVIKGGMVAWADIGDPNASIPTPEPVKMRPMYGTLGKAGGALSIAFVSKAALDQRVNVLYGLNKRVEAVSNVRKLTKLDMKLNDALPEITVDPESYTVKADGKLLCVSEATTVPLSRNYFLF

[1] = target: Bacillus pasteurii urease (Sporosarcina pasteurii, UniProt P41020); experiment: In vitro urease inhibition assay (indophenol method); conditions: for IC50: SEM of five determinations, pH 6.8, 30°C
Bacillus pasteurii urease, sequence (P41022 whole entry): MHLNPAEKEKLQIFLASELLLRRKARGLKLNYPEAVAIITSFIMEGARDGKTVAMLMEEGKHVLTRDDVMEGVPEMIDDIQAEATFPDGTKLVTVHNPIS
Bacillus pasteurii urease, sequence (P41020 whole entry): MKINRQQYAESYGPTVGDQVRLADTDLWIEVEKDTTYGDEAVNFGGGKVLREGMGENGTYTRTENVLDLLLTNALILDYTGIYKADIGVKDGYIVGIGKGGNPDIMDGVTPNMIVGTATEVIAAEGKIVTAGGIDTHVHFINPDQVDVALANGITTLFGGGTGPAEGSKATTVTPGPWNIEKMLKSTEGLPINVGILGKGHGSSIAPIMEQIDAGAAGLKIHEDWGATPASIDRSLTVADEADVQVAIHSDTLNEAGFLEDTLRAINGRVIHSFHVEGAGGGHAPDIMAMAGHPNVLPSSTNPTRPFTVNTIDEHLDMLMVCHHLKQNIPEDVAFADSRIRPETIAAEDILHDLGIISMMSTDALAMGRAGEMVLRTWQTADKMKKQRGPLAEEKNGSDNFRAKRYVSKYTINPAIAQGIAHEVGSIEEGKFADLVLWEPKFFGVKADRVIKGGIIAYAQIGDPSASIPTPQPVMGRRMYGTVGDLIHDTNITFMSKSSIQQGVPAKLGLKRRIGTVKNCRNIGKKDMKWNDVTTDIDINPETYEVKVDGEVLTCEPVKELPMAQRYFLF
Bacillus pasteurii urease, sequence (P41021 whole entry, further chain): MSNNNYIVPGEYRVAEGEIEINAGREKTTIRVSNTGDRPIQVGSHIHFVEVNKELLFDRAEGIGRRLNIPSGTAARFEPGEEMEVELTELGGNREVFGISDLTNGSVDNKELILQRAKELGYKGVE

α-chymotrypsin = α-chymotrypsin (Bos taurus, UniProt P00766); experiment: In vitro chymotrypsin inhibition assay; conditions: for IC50: SEM of five determinations, Tris-HCl pH 7.6, 25°C
[2] = Urease IC50 ± SEM (Jack bean urease)
[3] = read-out: Urease IC50 ± SEM (Bacillus pasteurii urease)
[4] = Urease IC50 ± SEM (Bacillus pasteurii urease)

Structure (SMILES) | IC50 (Jack bean urease; [2]) | IC50 [1, 3] | IC50 [1, 4] | IC50 (α-chymotrypsin) | inhibitory activity against Jack bean urease (in words) (Jack bean urease) | inhibitory activity against Bacillus pasteurii urease (in words) [1] | inhibitory potential against α-chymotrypsin (in words) (α-chymotrypsin) | IC50 (Jack bean urease; read-out: Urease IC50 ± SEM (Jack bean urease))
COc1cc(/C=C2\CCn3c2nc2ccccc2c3=O)cc(OC)c1O [Isaindigotone] | 34.03 ± 0.07 µM | 26.13 ± 0.08 µM | 29.03 ± 0.04 µM | 22.01 ± 0.06 µM | – | – | – | –
O=C1C(c2[nH]c3ccccc3c2C2=c3ccccc3=N/C2=C2\Nc3ccccc3C2=O)=Nc2ccccc21 [Bisindigotin] | 58.15 ± 0.02 µM | 42.04 ± 0.07 µM | – | 34.01 ± 0.07 µM | significant inhibitory activity | significant inhibitory activity | moderate inhibitory potential | –
COc1cc(C2c3c(c4ccccc4[nH]c3=O)C(=O)N3CCCC23)cc(OC)c1O (stereo not shown) [Isaindigotidione] | 29.03 ± 0.04 µM | 20.04 ± 0.09 µM | – | 16.09 ± 0.07 µM | – | – | – | –
NC(N)=S [Thiourea, reference compound] | – | 14.03 ± 0.08 µM | – | – | – | – | – | 18.04 ± 0.01 µM
O=C1/C(=c2\c3ccccc3n3c(=O)c4ccccc4nc23)Nc2ccccc21 [Candidine] | – | – | 46.12 ± 0.05 µM | 44.07 ± 0.04 µM | – | significant inhibitory activity | moderate inhibitory potential | –
